Results from paper PMC5477519, “Leukocyte integrin Mac-1 regulates thrombosis via interaction with platelet GPIbα” (Nature Communications, 2017).

Tests used:
[1] = target: T1, αMI-domain double mutant of integrin Mac-1 (αMβ2, CD11b/CD18) (Homo sapiens, UniProt P11215, R232A/T229A); assay: SPR (Biacore […], ~[…] RU, steady-state affinity); low-level binding, no consistent interaction at ~[…] RU
T1 construct: gene ITGAM; αMI-domain, human mutant

[2] = target: T2, αMI-domain of integrin Mac-1 (αMβ2, CD11b/CD18) (Homo sapiens, UniProt P11215); assay: SPR (Biacore […], CM5 chip, steady-state affinity); supported by inhibition of GPIbα binding to αMI-domain (IC50 […])
T2 construct: gene ITGAM; αMI-domain, human WT
T2 sequence (P11215 150-328 limits assumed): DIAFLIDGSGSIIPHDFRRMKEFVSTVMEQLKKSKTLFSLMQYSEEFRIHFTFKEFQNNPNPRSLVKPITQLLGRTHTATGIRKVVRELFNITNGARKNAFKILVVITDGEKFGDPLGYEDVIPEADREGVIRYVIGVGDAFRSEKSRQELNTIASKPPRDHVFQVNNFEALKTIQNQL

T1 sequence (P11215 150-328 T229A/R232A limits assumed): as the sequence (P11215 150-328 limits assumed) above, with T80A, R83A counted along it

Kd [1]: ~244 µM
Kd [2]: ~100 µM
Compound: N[C@H]1C(O)O[C@H](CO)[C@@H](O)[C@@H]1O (some centres unmarked) [glucosamine]
